Assay results as given in publication PMC4099972, “Extracts from New Zealand Undaria pinnatifida Containing Fucoxanthin as Potential Functional Biomaterials against Cancer in Vitro” (Journal of Functional Biomaterials, 2014).
Read-outs that look alike come from different tables or passages of the source.

How the values were obtained:
[1] = test system: human umbilical vein endothelial (HUVEC); test: MTT cell viability assay, non-cancer HUVEC; format: cell-based; details: extract concentrations normalized to fucoxanthin purity, read-out: IC50, growth inhibition (non-cancer cell line)
Description: (§1) All three cell lines were purchased from Invitrogen NZ Ltd. HDFb was maintained in Dulbecco’s Modified Eagle Medium supplemented with LSGS. HUVEC cells were maintained in Cascade Biologics Medium 200 supplemented with LSGS. HEK293 cells were maintained in RPMI 1640 culture medium supplemented with 1% Penicillin-Streptomycin, 4 mM L-glutamine and 10% of FBS. Cell viability was determined by MTT assay as previously described with a slight modification. Briefly, the optimized seeding cell density was 5000 cells/well for A549 and WiDr, while for Hep G2, Malme-3M, SiHa, NCI-H522, Lovo, SK-N-SH, and MCF-7, the seeding cell density was 10,000 cells/well. Microplate with 96 wells was used for the experiment and each well contained 100 μL of medium with cancer cells. […] All cancer cell lines were cultured in the presence or absence of fucoxanthin extract or standard. […] An aliquot of 20 μL of MTT reagent in phosphate buffer saline at a concentration of 5 mg/mL was added into each well after experiment, and washed with 150 µL of PBS. After incubation for 4 h at 37 °C, the formed MTT-formazan was dissolved in 150 μL DMSO.

[2] = test system: Malme-3M cell line (malignant melanoma); test: MTT cell viability assay, Malme-3M; format: cell-based, human; details: for IC50: Homo sapiens, extract concentrations normalized to fucoxanthin purity, read-out: IC50, growth inhibition
Description: (§2) All cancer cell lines were maintained in tissue culture incubator at 37 °C and 5% carbon dioxide. Cell viability was determined by MTT assay as previously described with a slight modification. Briefly, the optimized seeding cell density was 5000 cells/well for A549 and WiDr, while for Hep G2, Malme-3M, SiHa, NCI-H522, Lovo, SK-N-SH, and MCF-7, the seeding cell density was 10,000 cells/well. Microplate with 96 wells was used for the experiment and each well contained 100 μL of medium with cancer cells. […] All cancer cell lines were cultured in the presence or absence of fucoxanthin extract or standard. […] An aliquot of 20 μL of MTT reagent in phosphate buffer saline at a concentration of 5 mg/mL was added into each well after experiment, and washed with 150 µL of PBS. After incubation for 4 h at 37 °C, the formed MTT-formazan was dissolved in 150 μL DMSO. The viable cell amount was determined by the absorbance at 540 nm using a multiplate-reader (UV-visible FLUOStar Omega Multidetection Microplate Reader, AlphaTech NZ Ltd., Auckland, New Zealand).

[3] = test system: Hep G2 cell line (hepatocellular carcinoma); test: MTT cell viability assay, Hep G2; format: cell-based; details: Homo sapiens, HepG2, extract concentrations normalized to fucoxanthin purity, read-out: IC50, growth inhibition
Description: as §2

[4] = test system: WiDr cell line (colon adenocarcinoma); test: MTT cell viability assay, WiDr; format: cell-based; details: Homo sapiens, extract concentrations normalized to fucoxanthin purity, read-out: IC50, growth inhibition
Description: as §2

[5] = test system: Lovo cell line (colon adenocarcinoma); test: MTT cell viability assay, Lovo; format: cell-based; details: Homo sapiens, extract concentrations normalized to fucoxanthin purity, read-out: IC50, growth inhibition
Description: as §2

[6] = test system: A549 cell line (lung carcinoma); test: MTT cell viability assay, A549; format: cell-based; details: Homo sapiens, extract concentrations normalized to fucoxanthin purity, read-out: IC50, growth inhibition
Description: as §2

mouse bone marrow cells = test system: mouse bone marrow cells; set-up: method as in PMID 21720124, PMID 21720125; details: cited from earlier work
[7] = test system: SK-N-SH cell line (neuroblastoma); test: MTT cell viability assay, SK-N-SH; format: cell-based; details: Homo sapiens, extract concentrations normalized to fucoxanthin purity, read-out: IC50, growth inhibition
Description: as §2

mice = test system: mice; set-up: method as in PMID 22072997; details: repeated dose of 500 and 1000 mg/kg for 30 day; cited from earlier work
[8] = cited from earlier work
[9] = test system: SiHa cell line (cervix squamous carcinoma); test: MTT cell viability assay, SiHa; format: cell-based, human; details: extract concentrations normalized to fucoxanthin purity, read-out: IC50, growth inhibition
Description: as §2

human non-cancer cells = test: MTT cell viability, human non-cancer cells (control study); format: cell-based; details: 1.56 μM
Description: Three human non-cancer cell lines including human dermal fibroblasts (HDFb), human umbilical vein endothelial (HUVEC) and human embryonic kidney (HEK293) were used to determine in vitro toxicity of pure fucoxanthin and extracts from NZ U. pinnatifida. All three cell lines were purchased from Invitrogen NZ Ltd. HDFb was maintained in Dulbecco’s Modified Eagle Medium supplemented with LSGS. HUVEC cells were maintained in Cascade Biologics Medium 200 supplemented with LSGS. HEK293 cells were maintained in RPMI 1640 culture medium supplemented with 1% Penicillin-Streptomycin, 4 mM L-glutamine and 10% of FBS.
Cell viability was determined by MTT assay as previously described [34] with a slight modification. […] Treatment time was 24, 48 or 72 h.
Pure fucoxanthin standard and all U. pinnatifida fucoxanthin extracts were dissolved in pure ethanol to 5 mM as a stock solution, and the final ethanol concentration was 2% in the culture medium. An aliquot of 20 μL of MTT reagent in phosphate buffer saline at a concentration of 5 mg/mL was added into each well after experiment, and washed with 150 µL of PBS. After incubation for 4 h at 37 °C, the formed MTT-formazan was dissolved in 150 μL DMSO. The viable cell amount was determined by the absorbance at 540 nm using a multiplate-reader (UV-visible FLUOStar Omega Multidetection Microplate Reader, AlphaTech NZ Ltd., Auckland, New Zealand). […]

rats = test system: rats; set-up: method as in doi:10.3136/nskkk.55.304; details: oral, 750 mg/kg for 28 days, purity 95%; cited from earlier work
[10] = test system: human dermal fibroblasts (HDFb); test: MTT cell viability assay, non-cancer HDFb; format: cell-based; details: Fibroblast, extract concentrations normalized to fucoxanthin purity, read-out: IC50, growth inhibition (non-cancer cell line)
Description: as §1

[11] = test system: NCI-H522 cell line (lung cancer); test: MTT cell viability assay, NCI-H522; format: cell-based; details: Homo sapiens, extract concentrations normalized to fucoxanthin purity, read-out: IC50, growth inhibition
Description: as §2

[12] = test system: MCF-7 cell line (breast adenocarcinoma); test: MTT cell viability assay, MCF-7; format: cell-based; details: Homo sapiens, MCF7, extract concentrations normalized to fucoxanthin purity, read-out: IC50, growth inhibition
Description: as §2

[13] = test system: all tested cancer cell lines (nine human cancer cell lines); test: MTT cell viability, all tested cancer cell lines; format: cell-based; details: 72 h, read-out: cell viability compared with untreated cell cultures
Description: All nine cancer cell lines were treated with pure fucoxanthin (Sigma) at concentrations of 1.5625, 6.25, 12.5, 25, 50, 80, 100 µM for 24, 48 and 72 h, respectively (Figure 3). There was significant difference between high and low concentrations and between 24, 48 and 72 h treatments (p < 0.05).
Human cancer cell lines used in this study were purchased from ATCC (Cryosite Ltd., Sydney, NSW, Australia), including lung carcinoma line A549, colon adenocarcinoma lines WiDr and Lovo, lung cancer line NCI-H522, hepatocellular carcinoma line Hep G2, neuroblastoma line SK-N-SH, breast adenocarcinoma line MCF, cervix squamous line SiHa, and malignant melanoma line Malme-3M. All nine cell lines were maintained in RPMI 1640 culture medium supplemented with 1% Penicillin-Streptomycin, 4 mM L-glutamine and 10% of FBS except Malme-3M (20% FBS). […]
Cell viability was determined by MTT assay as previously described with a slight modification. […]
Pure fucoxanthin standard and all U. pinnatifida fucoxanthin extracts were dissolved in pure ethanol to 5 mM as a stock solution, and the final ethanol concentration was 2% in the culture medium. […] The viable cell amount was determined by the absorbance at 540 nm using a multiplate-reader (UV-visible FLUOStar Omega Multidetection Microplate Reader, AlphaTech NZ Ltd., Auckland, New Zealand). […]

[14] = test system: human embryonic kidney (HEK293); test: MTT cell viability assay, non-cancer HEK293; format: cell-based; details: for IC50: Homo sapiens, extract concentrations normalized to fucoxanthin purity, read-out: IC50, growth inhibition (non-cancer cell line)
Description: as §1

CC(=O)O[C@H]1CC(C)(C)C(=C=C/C(C)=C/C=C/C(C)=C/C=C/C=C(C)/C=C/C=C(\C)C(=O)C[C@@]23O[C@]2(C)C[C@@H](O)CC3(C)C)[C@](C)(O)C1 [Pure fucoxanthin, fucoxanthin] gave an IC50 ([1]; 48 h treatment) of 3.98 µM, an IC50 ([1]; 72 h treatment) of 3.36 µM and an IC50 ([2]; 48 h treatment) of 28 ± 1.36 µM. The IC50 ([2]; 72 h treatment) was 17.3 ± 2.65 µM, the “concentration from which cell viability is significantly decreased” value ([2]; within 24 h) was no less than 50 µM and the IC50 ([3]; Hep G2, 48 h treatment) was 58.9 ± 1.23 µM. For the same compound, the IC50 ([3]; Hep G2, 72 h treatment) was 25.9 ± 1.69 µM, the IC50 ([4]; 48 h treatment) was 42.3 ± 1.25 µM and the IC50 ([4]; 72 h treatment) was 25 ± 1.63 µM. The IC50 ([5]; 48 h treatment) was 39.6 ± 0.94 µM, the IC50 ([5]; 72 h treatment) was 21.8 ± 1.17 µM and the IC50 ([6]; A549, 48 h treatment) was 44.7 ± 2.26 µM. For the same compound, the IC50 ([6]; A549, 72 h treatment) was 25.6 ± 1.07 µM, the genotoxic/mutagenic effects (mouse bone marrow cells) was “not found” and the IC50 ([7]; 48 h treatment) was 52.7 ± 1.07 µM. For the same compound, the IC50 ([7]; 72 h treatment) was 31.2 ± 2.62 µM, the “histological abnormality in tissues (liver, kidney, spleen, gonadal)” value (mice) was “no abnormality was found” and the 50% lethal dose [8] was “more than 2000 mg/kg body weight”. It also gave an IC50 ([9]; 48 h treatment) of 37.8 µM, an IC50 ([9]; Homo sapiens, 48 h, 48 h treatment) of 37.6 ± 1.49 µM and an IC50 ([9]; Homo sapiens, 72 h, 72 h treatment) of 18.9 ± 2.16 µM. The “effect on growth of human non-cancer cells” value (human non-cancer cells) was “promote the growth”, the “toxicity at repeated doses” value (rats) was “did not show obvious toxicity” and the IC50 ([10]; 48 h treatment) was 32.2 µM. For the same compound, the IC50 ([10]; 72 h treatment) was 15.7 µM, the IC50 ([11]; NCI-H522, 48 h treatment) was 46.1 ± 1.07 µM and the IC50 ([11]; NCI-H522, 72 h treatment) was 24.5 ± 1.58 µM. It also gave an IC50 ([12]; MCF-7, 48 h treatment) of 44 ± 2.61 µM, an IC50 ([12]; MCF-7, 72 h treatment) of 22.5 ± 1.26 µM and a viability at 100 µM [13] of roughly 20%. The “growth inhibition effect on cells” value ([14]; HEK293, 6.25 μM, 24- and 48-h treatment) was “no growth inhibition effect”, the IC50 ([14]; HEK293, 48 h treatment) was 18.7 µM and the IC50 ([14]; HEK293, 72 h treatment) was 7.66 µM.
